# Laboratory results reported in ChEMBL document CHEMBL1201862, “PubChem BioAssay data set” (2004).
#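 Following 48 hours of exposure in 96-well plates, responses at five concentrations were used to interpolate endpoints linearly. GI50 = concentration required for 50% inhibition of growth.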 Calls of active or inactive are those of the source. No stated cut-off is given here; in the data, active = GI50 up to about 1.1 µM and inactive = higher.
# Assays:
# Experiment in all cases: NCI-60 cell line screen, 48 h
# [1] = system: SNB-78
# [2] = system: SF-268
# [3] = system: SNB-19
# [4] = system: NCI-H460
# [5] = system: HOP-92
# [6] = system: SN12C
# [7] = system: M19-MEL
# [8] = system: SK-OV-3
# [9] = system: SK-MEL-5
# [10] = system: HOP-18
# [11] = system: OVCAR-5
# [12] = system: SR
# [13] = system: CCRF-CEM
# [14] = system: NCI-H522
# [15] = system: RXF 393
# [16] = system: UACC-257
# [17] = system: TK-10
# [18] = system: UO-31
# [19] = system: COLO 205
# [20] = system: DLD-1
# [21] = system: M14
# [22] = system: CAKI-1
# [23] = system: 786-0
# [24] = system: IGROV-1
# [25] = system: DMS-273
# [26] = system: OVCAR-4
# [27] = system: DMS-114
# [28] = system: HOP-62
# [29] = system: MOLT-4
# [30] = system: LXFL 529
# [31] = system: SW-620
# [32] = system: NCI-H23
# [33] = system: A549
# [34] = system: HCT-116
# [35] = system: OVCAR-3
# [36] = system: HT-29
# [37] = system: OVCAR-8
# [38] = system: SF-295
# [39] = system: SF-539
# [40] = system: EKVX
# [41] = system: RXF 631
# [42] = system: RPMI-8226
# [43] = system: ACHN
# [44] = system: K562
# [45] = system: HCT-15
# [46] = system: HCC 2998
# [47] = system: LOX IMVI
# [48] = system: SNB-75
# [49] = system: Malme-3M
# [50] = system: U-251
# [51] = system: SK-MEL-28
# [52] = system: KM12
# [53] = system: KM-20L2
# [54] = system: UACC-62
# [55] = system: NCI-H226
# [56] = system: A498
# [57] = system: HL-60
# [58] = system: SK-MEL-2
smiles,measurement,setting,value
C[N+](C)(C)CC1CCCC/C1=N\OC(=O)c1ccccc1 (configuration not stated),GI50,[1],> 100 µM (inactive)
same,GI50,[2],> 100 µM (inactive)
same,GI50,[3],> 100 µM (inactive)
same,GI50,[4],> 100 µM (inactive)
same,GI50,[5],> 100 µM (inactive)
same,GI50,[6],> 100 µM (inactive)
same,GI50,[7],> 100 µM (inactive)
same,GI50,[8],> 100 µM (inactive)
same,GI50,[9],> 100 µM (inactive)
same,GI50,[10],> 100 µM (inactive)
same,GI50,[11],> 100 µM (inactive)
same,GI50,[12],> 100 µM (inactive)
same,GI50,[13],> 100 µM (inactive)
same,GI50,[14],> 100 µM (inactive)
same,GI50,[15],> 100 µM (inactive)
same,GI50,[16],> 100 µM (inactive)
same,GI50,[17],36.1 µM (inactive)
same,GI50,[18],> 100 µM (inactive)
same,GI50,[19],> 100 µM (inactive)
same,GI50,[20],> 100 µM (inactive)
same,GI50,[21],> 100 µM (inactive)
same,GI50,[22],> 100 µM (inactive)
same,GI50,[23],> 100 µM (inactive)
same,GI50,[24],> 100 µM (inactive)
same,GI50,[25],> 100 µM (inactive)
same,GI50,[26],> 100 µM (inactive)
same,GI50,[27],> 100 µM (inactive)
same,GI50,[28],> 100 µM (inactive)
same,GI50,[29],> 100 µM (inactive)
same,GI50,[30],> 100 µM (inactive)
same,GI50,[31],> 100 µM (inactive)
same,GI50,[32],> 100 µM (inactive)
same,GI50,[33],> 100 µM (inactive)
same,GI50,[34],> 100 µM (inactive)
same,GI50,[35],> 100 µM (inactive)
same,GI50,[36],> 100 µM (inactive)
same,GI50,[37],> 100 µM (inactive)
same,GI50,[38],> 100 µM (inactive)
same,GI50,[39],> 100 µM (inactive)
same,GI50,[40],> 100 µM (inactive)
same,GI50,[41],> 100 µM (inactive)
same,GI50,[42],> 100 µM (inactive)
same,GI50,[43],> 100 µM (inactive)
same,GI50,[44],> 100 µM (inactive)
same,GI50,[45],> 100 µM
same,GI50,[46],> 100 µM (inactive)
same,GI50,[47],> 100 µM (inactive)
same,GI50,[48],> 100 µM (inactive)
same,GI50,[49],> 100 µM (inactive)
same,GI50,[50],> 100 µM (inactive)
same,GI50,[51],> 100 µM (inactive)
same,GI50,[52],> 100 µM (inactive)
same,GI50,[53],> 100 µM (inactive)
same,GI50,[54],> 100 µM (inactive)
Cc1ccccc1-n1c(CCl)nc2ccc(Br)cc2c1=O,GI50,[1],18.2 µM (inactive)
same,GI50,[2],3.21 µM (inactive)
same,GI50,[3],26.7 µM (inactive)
same,GI50,[4],13.5 µM (inactive)
same,GI50,[5],12.8 µM (inactive)
same,GI50,[6],0.434 µM (active)
same,GI50,[7],6.15 µM (inactive)
same,GI50,[8],29.5 µM (inactive)
same,GI50,[9],8.17 µM (inactive)
same,GI50,[10],22.9 µM (inactive)
same,GI50,[11],24.4 µM (inactive)
same,GI50,[12],3.73 µM (inactive)
same,GI50,[13],0.278 µM (active)
same,GI50,[14],2.28 µM (inactive)
same,GI50,[15],10.2 µM (inactive)
same,GI50,[16],14.8 µM (inactive)
same,GI50,[17],24.7 µM (inactive)
same,GI50,[18],14.9 µM (inactive)
same,GI50,[19],13.4 µM (inactive)
same,GI50,[20],3.82 µM (inactive)
same,GI50,[21],0.679 µM (active)
same,GI50,[22],1.77 µM (inactive)
same,GI50,[23],8.17 µM (inactive)
same,GI50,[24],14.3 µM (inactive)
same,GI50,[55],8.87 µM (inactive)
same,GI50,[56],30.1 µM (inactive)
same,GI50,[25],26 µM (inactive)
same,GI50,[26],14.8 µM (inactive)
same,GI50,[27],7.46 µM (inactive)
same,GI50,[28],23.4 µM (inactive)
same,GI50,[29],19.8 µM (inactive)
same,GI50,[30],0.887 µM (active)
same,GI50,[31],3.13 µM (inactive)
same,GI50,[32],9.91 µM (inactive)
same,GI50,[33],18.2 µM (inactive)
same,GI50,[34],9.53 µM (inactive)
same,GI50,[35],14.2 µM (inactive)
same,GI50,[36],4.29 µM (inactive)
same,GI50,[37],12.5 µM (inactive)
same,GI50,[38],11 µM (inactive)
same,GI50,[39],7.16 µM (inactive)
same,GI50,[40],18.1 µM (inactive)
same,GI50,[41],16.9 µM (inactive)
same,GI50,[42],8.36 µM (inactive)
same,GI50,[43],30.1 µM (inactive)
same,GI50,[57],5.77 µM (inactive)
same,GI50,[44],0.354 µM (active)
same,GI50,[45],3.59 µM
same,GI50,[46],16.8 µM (inactive)
same,GI50,[47],0.0333 µM (active)
same,GI50,[48],12.8 µM (inactive)
same,GI50,[49],17.3 µM (inactive)
same,GI50,[50],13.2 µM (inactive)
same,GI50,[51],17.5 µM (inactive)
same,GI50,[52],13.6 µM (inactive)
same,GI50,[58],14.6 µM (inactive)
same,GI50,[53],17.8 µM (inactive)
same,GI50,[54],4.4 µM (inactive)
